Target: Acetyl-CoA carboxylase 2 (Homo sapiens, UniProt O00763)
Test: Spectrophotometric 384 Well Assay: Assay reactions are then carried out in 384-well plates, with hACC2 in an appropriate dilution and at final assay concentrations (f.c.) of 100 mM Tris (pH 7.5), 10 mM trisodium citrate, 25 mM KHCO3, 10 mM MgCl2, 0.5 mg/ml BSA, 3.75 mM reduced L-glutathione, 15 U/ml lactate dehydrogenase, 0.5 mM phosphoenolpyruvate, 15 U/ml pyruvate kinase, compounds at different concentrations at final DMSO concentrations of 1%.The enzymatic reaction is then started by addition of a mixture of NADH, acetyl Coenzyme A (both 200 μM f.c.) and ATP (500 uM f.c.). The decrease of the optical density (slope S) is then determined at 25° C. at a wavelength of 340 nm over 15 minutes in a spectrophotometric reader.

Acetyl-CoA carboxylase 2, sequence (O00763 whole entry): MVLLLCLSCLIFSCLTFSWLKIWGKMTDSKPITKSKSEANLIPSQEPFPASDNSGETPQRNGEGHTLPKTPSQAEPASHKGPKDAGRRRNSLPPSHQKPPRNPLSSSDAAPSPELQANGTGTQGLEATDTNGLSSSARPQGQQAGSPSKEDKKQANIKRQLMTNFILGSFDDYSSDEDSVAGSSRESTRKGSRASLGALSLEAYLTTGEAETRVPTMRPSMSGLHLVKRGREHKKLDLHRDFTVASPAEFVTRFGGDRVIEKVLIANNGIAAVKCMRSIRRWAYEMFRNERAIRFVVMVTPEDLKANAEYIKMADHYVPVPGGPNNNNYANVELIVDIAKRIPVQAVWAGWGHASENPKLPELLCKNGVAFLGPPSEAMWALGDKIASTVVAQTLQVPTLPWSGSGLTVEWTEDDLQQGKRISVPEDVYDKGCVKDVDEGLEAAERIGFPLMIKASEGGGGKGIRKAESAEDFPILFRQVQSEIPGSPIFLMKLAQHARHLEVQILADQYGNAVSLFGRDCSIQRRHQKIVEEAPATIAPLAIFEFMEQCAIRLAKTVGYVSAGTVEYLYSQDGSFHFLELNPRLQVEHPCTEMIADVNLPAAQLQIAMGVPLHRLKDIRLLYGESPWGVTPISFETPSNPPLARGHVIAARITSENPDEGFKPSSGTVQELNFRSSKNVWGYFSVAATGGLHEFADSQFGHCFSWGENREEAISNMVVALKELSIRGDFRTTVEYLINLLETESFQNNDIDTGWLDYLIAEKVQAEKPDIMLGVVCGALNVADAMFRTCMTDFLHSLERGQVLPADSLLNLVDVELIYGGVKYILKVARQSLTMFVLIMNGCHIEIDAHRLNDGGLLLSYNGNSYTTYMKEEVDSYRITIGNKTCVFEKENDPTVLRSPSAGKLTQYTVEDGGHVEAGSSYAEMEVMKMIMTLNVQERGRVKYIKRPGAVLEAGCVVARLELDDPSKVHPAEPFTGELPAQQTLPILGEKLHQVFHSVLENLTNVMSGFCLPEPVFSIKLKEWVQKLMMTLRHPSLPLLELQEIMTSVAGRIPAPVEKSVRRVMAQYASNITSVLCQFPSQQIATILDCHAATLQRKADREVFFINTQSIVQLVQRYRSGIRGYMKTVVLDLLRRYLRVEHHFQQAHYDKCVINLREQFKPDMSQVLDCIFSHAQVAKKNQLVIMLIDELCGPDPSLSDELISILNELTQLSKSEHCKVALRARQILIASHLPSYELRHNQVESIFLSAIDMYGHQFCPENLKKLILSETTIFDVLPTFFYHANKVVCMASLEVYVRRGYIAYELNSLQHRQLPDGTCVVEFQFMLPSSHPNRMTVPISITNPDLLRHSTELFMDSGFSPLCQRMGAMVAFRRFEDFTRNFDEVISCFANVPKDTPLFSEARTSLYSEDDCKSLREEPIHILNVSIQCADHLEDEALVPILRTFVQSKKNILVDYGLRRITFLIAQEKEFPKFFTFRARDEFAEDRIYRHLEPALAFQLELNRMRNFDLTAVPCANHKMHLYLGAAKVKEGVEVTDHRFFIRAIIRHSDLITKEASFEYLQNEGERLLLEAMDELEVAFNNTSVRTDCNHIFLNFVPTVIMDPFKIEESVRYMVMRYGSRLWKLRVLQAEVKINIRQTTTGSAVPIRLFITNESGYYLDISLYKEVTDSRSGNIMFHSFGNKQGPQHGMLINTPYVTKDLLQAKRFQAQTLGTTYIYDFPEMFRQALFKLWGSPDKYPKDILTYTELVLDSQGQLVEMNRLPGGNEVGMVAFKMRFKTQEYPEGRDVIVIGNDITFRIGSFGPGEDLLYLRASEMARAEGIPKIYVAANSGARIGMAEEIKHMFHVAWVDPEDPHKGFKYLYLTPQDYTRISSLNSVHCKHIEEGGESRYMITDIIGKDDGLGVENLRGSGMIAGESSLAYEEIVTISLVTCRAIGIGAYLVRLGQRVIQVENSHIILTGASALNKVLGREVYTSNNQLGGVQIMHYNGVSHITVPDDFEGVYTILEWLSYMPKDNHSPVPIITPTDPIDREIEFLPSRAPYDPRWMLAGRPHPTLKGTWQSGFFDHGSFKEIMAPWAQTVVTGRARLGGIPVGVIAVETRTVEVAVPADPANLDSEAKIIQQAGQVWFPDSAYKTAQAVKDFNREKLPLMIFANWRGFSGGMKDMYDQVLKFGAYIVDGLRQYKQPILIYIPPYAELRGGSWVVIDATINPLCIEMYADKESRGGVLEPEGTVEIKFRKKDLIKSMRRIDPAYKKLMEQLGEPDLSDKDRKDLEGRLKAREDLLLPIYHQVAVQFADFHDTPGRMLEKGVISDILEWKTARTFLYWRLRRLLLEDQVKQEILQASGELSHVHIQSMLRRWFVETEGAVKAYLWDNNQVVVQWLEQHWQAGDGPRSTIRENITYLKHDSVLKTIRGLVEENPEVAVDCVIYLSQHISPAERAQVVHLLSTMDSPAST

Structure (SMILES)	IC50
C[C@H](NC(=O)c1cn[nH]c1)c1ccc(O[C@@H]2CCN(c3ccc(OCC4CC4)cc3)C2)cc1	0.016 µM
COC(=O)N[C@@H](C)c1ccc(OC2CCN(c3ccc(OC(C)C)cc3)C2)cc1 (some centres not stated)	1.36 µM

— ChEMBL document CHEMBL3886310, “Pyrrolidine derivatives, pharmaceutical compositions and uses thereof” (2015)
